Laboratory results: patent US11072637B2, “Walnut oligopeptide powder, preparation method and application thereof” (Sinphar Tian-Li (Hangzhou) Pharmacy Company Limited, priority 2016, dated 2021)

Tests used:
Format in all cases: biochemical
Conditions in all cases: 100 μg/mL
[1] = SRSA superoxide anion free radical scavenging experiment
Protocol: 3. SRSA Superoxide Anion Free Radical Scavenging Experiment: 3.1 Preparation of 0.1 moL/L PBS buffer solution (pH 7.4): 80 g of sodium chloride, 2 g of potassium chloride, 2.4 g of monopotassium phosphate and 23.1 g of dipotassium hydrogen phosphate trihydrate were weighted and placed in 1000 ml beaker, adding 600 ml of distilled water, stirring to dissolve, and adjusting the pH to […] with hydrochloric acid or sodium hydroxide, transferring into 1000 ml volumetric flask, adding distilled water to dilute to the scale, shaking evenly, and standing for later use. […] 3.7 Operation steps: accurately sucking 0.5 ml of test solution and 5 ml of the working solution, and uniformly mixing; accurately sucking 0.5 ml of test solution and 5 ml of distilled water, and uniformly mixing; accurately sucking 5 ml of the working solution and 0.5 ml of distilled water, and uniformly mixing, the absorbance was determined immediately at 560 nm, and the free radical scavenging rate was calculated according to the following formula: IR%=[1−(Ai−Aj)/A0]*100%; in which, Ai represents the absorbance of the mixture of the test solution and […], Aj represents the absorbance of the mixture of the test solution and the solvent; and A0 represents the absorbance of the mixture of SRSA and solvent. […]

[2] = DPPH free radical scavenging experiment
Protocol: 1. DPPH Free Radical Scavenging Experiment: 1.1 Preparation of DPPH ethanol solution: precisely weighing 4 mg of […], putting into a 100 ml brown volumetric flask, and adding 50 ml of ethanol, the ultrasonic treatment was carried out for 30 seconds, ethanol was used for fixing the volume to scale, shaking, and the product needs to be freshly prepared when needed. 1.2 Preparation of test solution: precisely weighing 10 mg of walnut oligopeptide powder, and putting into a 50 ml brown volumetric flask, adding 30 ml of ethanol, carrying out ultrasonic treatment for 5 minutes, diluting with ethyl alcohol for fixing the volume to scale, and shaking. […]

[3] = ABTS+ free radical scavenging experiment
Protocol: 2. ABTS^+ Free Radical Scavenging Experiment: 2.1 Preparation of PBS buffer solution: weighing 8 g of sodium chloride, 0.2 g of potassium chloride, 0.24 g of monopotassium phosphate, and 3.62 g of disodium hydrogen phosphate dodecahydrate and putting them into a 1000 ml beaker, adding 800 ml of distilled water, stirring to dissolve, and adjusting the pH value to 7.4 by using hydrochloric acid or sodium hydroxide, transferring into a 1000 ml volumetric flask, adding distilled water to dilute, shaking evenly, and standing for later use. […] 2.5 Operation steps: accurately sucking 0.5 ml of test solution and 5 ml of ABTS working solution, and mixing uniformly; accurately sucking 0.5 ml of test solution and 5 ml of PBS buffer solution, and mixing uniformly; accurately sucking 5 ml of ABTS working solution and 0.5 ml of PBS buffer solution, and mixing uniformly, the absorbance was measured immediately at 734 nm, and the free radical removal rate was calculated according to the following formula: IR%=[1−(Ai−Aj)/A0]*100%; in which, Ai represents the absorbance of the mixture of the test solution and ABTS, Aj represents the absorbance of the mixture of the test solution and solvent, and A0 represents the absorbance of the mixture of ABTS and solvent. […]

O=C1O[C@H]([C@@H](O)CO)C(O)=C1O [Vitamin C]
SRSA scavenging rate % [1]: 80.1%
DPPH scavenging rate % [2]: 97.2%
ABTS^+ scavenging rate % [3]: 98.1%
